The values below come from patent US7657076B2, “Characterizing biological stimuli by response curves” (Cytokinetics, Inc., priority 2001, dated 2010).

For assay [1], the system named is microtubule assembly. The settings on record: review of the literature; cited from earlier work.
For assay [2], the system named is HUVEC, A498, A548, SF268, SKOV3, and DU145. In words: Multivariate quantitative phenotype dose response by image analysis (tubulin feature). In kind it is cell-based, human. The source says:
As indicated, phenotypic vectors for given stimuli and level combinations may include multivariate information taken from different cell lines. However, this need not be the case, as all the multivariate data of interest may be obtained from a single cell line. Generally, a researcher will chose one or a range of cell lines that are relevant to the area of interest. For example, if the researcher focuses on oncology applications, the cell lines chosen may include different types of cancers and possibly other cells lines that allow one to identify typical side effects of anti cancer drugs. In one specific embodiment pertaining to oncology, six different cell lines are considered. These include HUVEC (human umbilical vein endothelial cells), A498, A548, SF268, SKOV3, and DU145.
In a more specific embodiment, the parameter set for each dose/compound point in a response path includes parameters derived from DNA markers, Golgi markers, and tubulin markers. […] The size of the nuclei as derived from a DNA marker. […]
The data points are presented within the first three principal components obtained for the entire data set. […] The specific features and cell lines used to construct the quantitative phenotypes shown as points in the plot are set forth above in the “Multivariate Phenotypic Data from Images” and “Selecting Experiments for Providing Response Paths” sections. […]

As to `C=C1[C@@H](C)[C@H]2[C@H](Cc3ccccc3)NC(=O)[C@]23OC(=O)/C=C/C(=O)CCC[C@@H](C)C/C=C/[C@H]3[C@@H]1O` [Cytochalasin A], the “effect on microtubule assembly” value in assay [1] is listed as “interferes with microtubule assembly by reacting with sulfhydryl groups”. Moreover, in assay [2] (all cell lines, eight concentrations), the “change in tubulin biological features with increasing concentration” value is on record as “lack of an increase in the tubulin features”. For the same molecule, the “affinity of the microtubule side effect compared with affinity for actin” value in assay [2] (inferred from common PCA trajectory at lower concentrations) is on record as “lower affinity”.
